Source: patent US4000297A, “N-p-chlorobenzoyl tryptophane, salts and compositions thereof” (priority 1971, dated 1976)
Structures can show the parent of a compound that is named as a salt.

How the values were obtained:
[1] = test system: transit through the stomach and intestine; assay: Anti-spastic activity, vegetable carbon (charcoal) test, rate of transit through the stomach and intestine; assay type: in vivo, mice; conditions: calcium salt
Description: Particularly marked is the anti-spastic activity which the present compounds exercise on the entire digestive system. Measured in the mouse, using the vegetable carbon test (rate of transit through the stomach and intestine), this activity is in some cases comparatively greater than the anti-secretive activity (Table 3).
(*)The antispastic activity is measured in mice of an average weight of […]
± 3 g by administering a suspension of charcoal in gum arabic and
checking after two hours whether the charcoal has reached the initial
portion of the colon. In non-treated subjects the charcoal reaches this
transit of the charcoal. Evaluation of the results is effected as
ED50 in mg/kg body weight of the animal, i.e., the dose at which the […]

[2] = Stability in conventional preservation tests and light sensitiveness; assay type: physicochemical; conditions: oral forms (capsules, tablets)
gastric secretion = assay: Comparison of antisecretive activity, rats with tied pylorus, oral aqueous suspension; assay type: in vivo; conditions: oral, calcium salt
[3] = test system: gastric lesions from Indomethacin; assay: Protective activity against gastric lesions due to Indomethacin; assay type: in vivo, rats; conditions: oral; Indomethacin 16 mg/kg orally; 240 min; calcium salt
Description: The activity is defined as the dose in mg/kg of body weight to the animal, which prevents in 50% of the treated subjects arising of lesions due to Indomenthacin.
The protective preparations are administered orally in aqueous suspension.

[4] = Tolerability in humans, prolonged oral administration; assay type: in vivo; conditions: several weeks, 500 to 1600 mg
Solubility = assay type: physicochemical

O=C(N[C@@H](Cc1c[nH]c2ccccc12)C(=O)O)c1ccc(Cl)cc1 [CR 501 calcium salt, N-p-chloro-benzoyl-L-tryptophane calcium salt]
Antispastic activity ED50 ([1]; charcoal after two hours, orally (later Table 3), 120 min, 120 min): 210 mg/kg
Antispastic activity, in words ([1]; mouse, in vivo): more particularly effective as antispastic
Light sensitiveness [2]: absence of light sensitiveness
Stability on conventional preservation tests [2]: thorough stability
Antisecretive activity (dose which reduces the gastric secretion by 50%) (gastric secretion; 2.5 hrs, 150 min): 210 mg/kg
Antisecretive activity (dose which reduces the gastric secretion by 50%) (gastric secretion; 5 hrs, 300 min): 165 mg/kg
Antisecretive activity (dose which reduces the gastric secretion by 50%) (gastric secretion; 10 hrs, 600 min): 142 mg/kg
Antisecretive activity (dose which reduces the gastric secretion by 50%) (gastric secretion; 15 hrs, 900 min): 170 mg/kg
Protective activity ED50 [3]: 145 mg/kg/os
Side effects in humans [4]: does not lead to any specific side effect
Solubility in acetone (Solubility; acetone): soluble
Solubility in ethanol (Solubility; ethanol, listed as Example 53, calcium salt): soluble
Solubility in methanol (Solubility; methanol, listed as Example 53, calcium salt): soluble
Solubility in water (Solubility; water, in words, listed as Example 53, calcium salt): Very slightly soluble
